Measurements: publication PMC11085308, “Design, Synthesis and Biological Activity of Novel Methoxy- and Hydroxy-Substituted N-Benzimidazole-Derived Carboxamides” (Molecules, 2024)
≈ marks a conversion by molar mass, not a printed value. Like-named read-outs stand apart in the source and are kept apart here.

Assays:
S. aureus ATCC 29213 = experiment: Antibacterial activity in vitro, broth microdilution MIC; format: cell-based, Staphylococcus aureus; conditions: for MIC S. aureus ATCC 29213: broth microdilution, 16–24 h at 37 °C, unit inferred
Description: (§1) The in vitro antibacterial activity of the synthesized benzamides 7–12 and 31–37 was evaluated against a panel of eight different bacterial strains. The Gram-positive bacterial strains comprised S. aureus, S. pneumoniae and E. faecalis, and the panel of Gram-negative bacteria consisted of E. coli, K. pneumoniae, A. baumannii and P. aeruginosa.
(§2) The selected bacterial strains were Gram-negative Escherichia coli (ATCC 25922) and Gram-positive Staphylococcus aureus (ATCC 29213) and S. Pneumoniae (ATCC 49619). The Saccharomyces cerevisiae ATCC 7752 strain was tested as a eukaryotic model organism. Synthesized compounds were prepared as 10 mM DMSO solutions and tested in a final concentration range of 100–0.2 µM [39].
(§3) Broth microdilution testing was performed according to CLSI (Clinical Laboratory Standards Institute) guidelines. The MIC (minimal inhibitory concentration) value was defined as the last tested concentration of a compound at which there is no visible growth of bacteria. Inoculums for each microorganism were prepared using the direct colony suspension method, where broth solutions that achieved turbidity equivalent to 0.5 McFarland standards were additionally diluted 100× with cation-adjusted MH media (Becton Dickinson). All test plates were incubated for 16–24 h at 37 °C.

P. aeruginosa ATCC 27853 = experiment: as above; format: cell-based; conditions: 16–24 h at 37 °C, unit inferred
Description: as §1, §2, §3

E. faecalis ATCC 29212 = experiment: as above; format: cell-based; conditions: for Selectivity of antibacterial activity, in words: against the Gram-positive strain E. faecalis; for MIC E. faecalis ATCC 29212: broth microdilution, 16–24 h at 37 °C, unit inferred
Description: as §1, §2, §3

A. baumannii ATCC 17978 = experiment: as above; format: cell-based; conditions: 16–24 h at 37 °C, unit inferred
Description: as §1, §2, §3

[1] = Ferric reducing/antioxidant power (FRAP assay); design: FRAP: unit not given here; conditions: for FRAP: Fe2+ equivalents, triplicate
Description: (§4) The synthesized benzazole acrylonitrile derivatives were screened for their antioxidative potency by using in vitro assays, namely DPPH and ABTS as free radical scavenging assays and FRAP as a ferric reducing/antioxidant power assay.
The antioxidant activity of a substance is directly related to its reducing power.
The FRAP method was carried out according to previously described procedures with some modifications to make it compatible with an assay on a 96-well microplate. All results were expressed as Fe^2+ equivalents (Fe^2+ µmol). Ferrous sulphate (FeSO4 × 7H2O) was used to develop a standard curve of 20–2000 µmol/l for the FRAP test.

E. coli ATCC 25922 = experiment: Antibacterial activity in vitro, broth microdilution MIC; format: cell-based, Escherichia coli; conditions: 16–24 h at 37 °C, unit inferred
Description: as §1, §2, §3

[2] = Solubility in water, seen as precipitation during incubation; format: physicochemical; conditions: precipitation observed during the incubation period
Text: Therefore, it is not clear whether the observed antiproliferative activity is due to the biological activity of the compounds or to precipitation.

E. coli efflux del. = experiment: microbe, parasite or virus in culture; format: cell-based, Escherichia coli; conditions: broth microdilution, 16–24 h at 37 °C; unit inferred
Description: as §1, §2, §3

H460 (lung carcinoma) = experiment: Antiproliferative activity in vitro, MTT assay, 72 h; format: cell-based; conditions: Homo sapiens, NCI-H460, 72 h incubation
Description: (§5) The experiments were carried out on four human cell lines which are derived from three cancer types: H460 (lung carcinoma), HCT 116 (colorectal carcinoma), MCF-7 (human breast cancer) and the non-cancerous cell line HEK 293 (human embryonic kidney).
(§6) The results are compared with the known antiproliferative agents doxorubicin and etoposide. […] Therefore, it is not clear whether the observed antiproliferative activity is due to the biological activity of the compounds or to precipitation.
(§7) The experiments were performed on four human cell lines, including HCT 116 (colon carcinoma), H 460 (lung carcinoma), MCF-7 (breast carcinoma) and HEK 293 (human embryonic kidney cells), in line with previously published experimental procedures. Briefly, the cells were grown in DMEM medium with the addition of 10% fetal bovine serum (FBS), 2 mM of L-glutamine, 100 U/mL of penicillin and 100 µg/mL of streptomycin and cultured as monolayers at 37 °C in a humidified atmosphere with 5% CO2. Cells were seeded at 2 × 10^3 cells/well in standard 96-well microtiter plates and left to attach for 24 h. The next day, a test compound was added in five serial 10-fold dilutions. The rate of cell growth was evaluated after 72 h of incubation with MTT assays. […] Each test was performed in quadruplicate in at least two individual experiments.

[3] = test system: MCF-7 (human breast cancer); experiment: as above; format: cell-based; conditions: MCF7, 72 h incubation
Description: as §5, §6, §7

[4] = test system: HCT 116 (colorectal carcinoma); experiment: as above; format: cell-based; conditions: Homo sapiens, 72 h incubation, '-' with footnote a = did not show biological activity due to precipitation
Description: as §5, §6, §7

[5] = test system: H460, HCT 116, MCF-7, HEK 293; experiment: Antiproliferative activity in vitro, MTT assay, range over the tested cell lines; format: cell-based, human; conditions: read-out: IC50 range against the tested cell lines
Description: as §5, §6, §7

HCT 116 cells = experiment: Antioxidative activity assay in cells (ROS level, DCFH-DA fluorescence); format: cell-based, human; conditions: HCT 116, TBHP 100 µM plus 10 µM compound, 1 h, compared to NAC
Text: We further selected compounds 9, 10, 32 and 36, showing quite pronounced antioxidant capacity in the DPPH and FRAP assays, in order to test their pro- and antioxidant activity in tumor cells. In order to test the antioxidant activity of the selected compounds in tumor cells (Figure 2), we treated HCT 116 cells with tert-butyl hydroperoxide (TBHP), a substance commonly used for inducing oxidative stress in cells and tissues, alone or in combination with a known antioxidative agent, N-acetyl-L-cysteine (NAC), or the tested compounds. We measured the formation of oxidative stress byproducts using 2′,7′-dichlorodihydrofluorescein diacetate (DCFH-DA).
For the antioxidative activity assay, 2.5 × 10^4 cells were seeded into 96-well microtiter plates and left to attach for 24 h. The next day, cells were washed with PBS and incubated in FBS-free DMEM medium with 25 µM of DCFH-DA fluorescence dye. After 45 min of incubation, the medium was discarded, and the cells were washed with PBS.
After the washing step, the cells were incubated with 100 µM of tert-butyl hydroperoxide (TBHP) alone or in combination with antioxidative agents (50 mM of N-Acetyl-L-cysteine-NAC or 10 µM of the tested compounds) in PBS for 1 h at 37 °C. DCFH-DA fluorescence was recorded on a microplate fluorimeter reader (Tecan) with an excitation beam of 485 nm, while the emitted fluorescence was collected at 535 nm. All tests were presented as the means of two independent measurements carried out in triplicate. One-way ANOVA with Tukey’s post hoc test was used for statistical analysis: *—p < 0.05; **—p < 0.01; ***—p < 0.001.
Figure 2 Antioxidative activity of selected systems. HCT 116 cells were treated with a combination of H2O2 (4 mM) and N-acetyl-L-cysteine (NAC, 10 mM) or the tested compounds (10 mM). Treatment with H2O2 (4 mM) alone was used as a control for ROS induction. The level of reactive oxygen species (ROS) was measured with the fluorescent dye DCFH-DA using a fluorimeter. The data presented here are the results of three independent measurements carried out in triplicate. A one-way ANOVA with Tukey’s post hoc test was used for statistical analysis, *** p < 0.001; ns—not significant.

[6] = test system: HEK 293 (human embryonic kidney); experiment: Antiproliferative activity in vitro, MTT assay, 72 h, non-cancerous cell line; format: cell-based; conditions: HEK293, 72 h incubation, '-' with footnote a = did not show biological activity due to precipitation
Description: as §5, §6, §7

[7] = DPPH free radical scavenging assay; conditions: compared to the standard BHT
Text: as §4
The well-known antioxidant butylated hydroxytoluene (BHT) was used as a standard for comparing activity during testing. The DPPH assay is a standard commonly used test for the in vitro assessment of the antioxidant capacity of novel compounds by using their ability to scavenge the stable radical 1,1-diphenyl-picrylhydrazyl. […] Another test used to evaluate the antioxidative capacity of novel compounds was the ABTS test, by which their activity was evaluated by scavenging the stable radical 3-ethylbenzthiazoline-6-sulphonic acid.
Determination of the reducing activity of the stable radical 1,1-diphenyl-picrylhydrazyl (DPPH):
The reducing activity of the investigated systems was measured by the DPPH method according to previously described procedures with modifications to ensure their use on a 96-well microplate. Briefly, equal volumes of various concentrations of the tested molecules (dissolved in DMSO) were added to a solution of DPPH (final concentration of 50 µM in absolute ethanol). Ethanol and DMSO were used as control solutions in line with earlier reports. The radical scavenging activity was calculated using the following formula:[(A517 control − A517 compound)/A517 control] × 100.
The IC50 values were calculated from dose–response curves using nonlinear regression analysis with the GraphPad Prism 8 Ink. program. All measurements were carried out in triplicate.

Compound	MIC S. aureus ATCC 29213 (S. aureus ATCC 29213)	MIC P. aeruginosa ATCC 27853 (P. aeruginosa ATCC 27853)	Selectivity of antibacterial activity, in words (E. faecalis ATCC 29212)	MIC E. faecalis ATCC 29212 (E. faecalis ATCC 29212)	MIC A. baumannii ATCC 17978 (A. baumannii ATCC 17978)	FRAP [1]	MIC E. coli ATCC 25922 (E. coli ATCC 25922)	Solubility in water [2]	MIC E. coli efflux del. (E. coli efflux del.)	IC50 (H460 (lung carcinoma))	IC50 [3]	IC50 [4]	IC50 ([5]; Homo sapiens)	IC50 [5]	Level of ROS in cells under induced oxidative stress (HCT 116 cells)	IC50 [6]	DPPH free radical scavenging activity, in words [7]	MIC (S. aureus ATCC 29213; Staphylococcus aureus, ATCC29213, read-out: MIC S. aureus)	FRAP ferric reducing/antioxidant power, in words ([1]; compared to the standard BHT)	melting point
COc1ccc(C(=O)Nc2nc3ccccc3[nH]2)c(O)c1 [Compound 7, N-(1H-benzo[d]imidazol-2-yl)-2-hydroxy-4-methoxybenzamide]	> 64 µM	> 64 µM	selective antibacterial activity	16 µM (≈ 4.53 µg/mL)	> 64 µM	387.28 ± 7.56	> 64 µM	low solubility in water	> 64 µM	> 100 µM	36.3 ± 1.8 µM	26.4 ± 4.8 µM	–	–	–	–	–	–	–	–
COc1ccc(C(=O)Nc2nc3cc(C#N)ccc3n2CC(C)C)c(O)c1 [Compound 10, N-(5-cyano-1-isobutyl-1H-benzo[d]imidazol-2-yl)-2-hydroxy-4-methoxybenzamide]	> 64 µM	> 64 µM	–	> 64 µM	> 64 µM	123.61 ± 2.52	> 64 µM	–	> 64 µM	4.4 ± 0.4 µM	2.2 ± 0.9 µM	3.9 ± 0.4 µM	2.2 to 4.4 µM	1.2 to 5.3 µM	did not effectively scavenge ROS	4.4 ± 0.3 µM	–	–	–	–
Cn1c(NC(=O)c2ccccc2O)nc2cc(C#N)ccc21 [Compound 11, N-(5-cyano-1-methyl-1H-benzo[d]imidazol-2-yl)-2-hydroxybenzamide]	> 64 µM	> 64 µM	selective antibacterial activity	32 µM (≈ 9.35 µg/mL)	> 64 µM	422.55 ± 8.82	> 64 µM	–	> 64 µM	> 100 µM	1.2 ± 0.3 µM	3.7 ± 0.04 µM	1.2 to 5.3 µM	–	–	5.3 ± 0.6 µM	–	–	–	–
COc1ccc(C(=O)Nc2nc3cc(C#N)ccc3n2C)c(O)c1 [Compound 12, N-(5-cyano-1-methyl-1H-benzo[d]imidazol-2-yl)-2-hydroxy-4-methoxybenzamide]	> 64 µM	> 64 µM	selective antibacterial activity	32 µM (≈ 10.3 µg/mL)	> 64 µM	592.86 ± 13.86	> 64 µM	low solubility in water	> 64 µM	> 100 µM	3.1 µM	–	–	–	–	–	–	–	–	–
Cn1c(NC(=O)c2cc(O)c(O)c(O)c2)nc2cc(C#N)ccc21 [Compound 36, N-(5-cyano-1-methyl-1H-benzo[d]imidazol-2-yl)-3,4,5-trihydroxybenzamide]	32 µM (≈ 10.4 µg/mL)	> 64 µM	–	64 µM (≈ 20.8 µg/mL)	> 64 µM	2396.01 ± 35.27	> 64 µM	–	> 64 µM	48.3 ± 10.5 µM	4.8 ± 0.7 µM	19.3 ± 6.4 µM	–	–	reducing the level of ROS in the cells	25.3 ± 0.7 µM	significantly improved	32 µM (≈ 10.4 µg/mL)	excellent in vitro antioxidant activity	245 to 251 °C
